≈ marks a conversion by molar mass, not a printed value. Values belong to the compound of their own block, whether it stands above or below them.
Columns and labels:
HMC1 = assay: Cytotoxicity against HMC1 cells assessed as reduction in cell viability at 1.8 to 30 uM after 24 hrs by trypan blue assay relative to control; assay type: cell-based; conditions: human, hmc1, 24 h
SH-SY5Y [1] = assay: Neuroprotective activity against 6-OHDA-induced cell death in human SH-SY5Y cells assessed as apoptotic cells at 0.5 ug/ml pretreated for 1 hr followed by 6-OHDA challenge measured after 24 hrs by propidium iodide/RNase staining based flow cytometry (reference value: 31.56 %); assay type: functional
SH-SY5Y [2] = assay: Neuroprotective activity against 6-OHDA-induced cell death in human SH-SY5Y cells assessed as apoptotic cells at 5 ug/ml pretreated for 1 hr followed by 6-OHDA challenge measured after 24 hrs by propidium iodide/RNase staining based flow cytometry (reference value: 31.56 %); assay type: functional
Rattus norvegicus [3] = assay: Neuroprotective activity in 6-OHDA-induced lesioned Sprague-Dawley rat assessed as increase in TH-immunopositive neurons at 200 mg/kg, ig administered once daily for 15 days measured on day 42 post 6-OHDA lesion induction by immunohistochemical analysis relative to control; assay type: functional
DU-145 [4] = assay: Anti-tumor activity against human DU145 cells xenografted in SCID mouse assessed as tumor volume at 10 mg/kg, po administered once daily for 28 days measured every seven days during compound dosing (reference value: 314 +/- 54.8 mm3); assay type: functional
DU-145 [5] = assay: Anti-tumor activity against human DU145 cells xenografted in SCID mouse assessed as tumor volume at 20 mg/kg, po administered once daily for 28 days measured every seven days during compound dosing (reference value: 314 +/- 54.8 mm3); assay type: functional
DU-145 [6] = assay: Anti-tumor activity against human DU145 cells xenografted in SCID mouse assessed as tumor volume at 30 mg/kg, po administered once daily for 28 days measured every seven days during compound dosing (reference value: 314 +/- 54.8 mm3); assay type: functional
NCI-H460 = assay: Cytotoxicity against human H460 cells assessed as reduction in cell viability at 50 uM after 72 hrs by trypan blue staining based assay relative to control; assay type: functional
[7] = Apparent permeability of the compound; assay type: physicochemical; conditions: not told
[8] = Tmax in Sprague-Dawley rat at 224 umol/kg, po administered via gastric gavage; assay type: ADME, organism-based; conditions: in vivo
[9] = (§1) Oral bioavailability in Sprague-Dawley rat at 224 umol/kg administered via gastric gavage; assay type: ADME, organism-based; conditions: Sprague-Dawley, in vivo, 224 umol/kg
Rattus norvegicus [10] = assay: In vivo inhibition of P-gp in Sprague-Dawley rat assessed as increase in nimodipine AUC at 2 mg/kg, po pretreated for 30 mins followed by nimodipine addition measured after 36 hrs by HPLC method relative to nimodipine alone; assay type: functional
Rattus norvegicus [11] = assay: In vivo inhibition of P-gp in Sprague-Dawley rat assessed as increase in nimodipine AUC at 8 mg/kg, po pretreated for 30 mins followed by nimodipine addition measured after 36 hrs by HPLC method relative to nimodipine alone; assay type: functional
Cytochrome P450 3A4 = Cytochrome P450 3A4 (Homo sapiens, UniProt P08684); assay: Inhibition of human CYP3A4 expressed in baculovirus infected insect cells using 7-benzyloxy-4-trifluoromethylcoumarin as substrate measured after 45 mins in presence of NADPH by spectrofluorometric method; assay type: ADME
Rattus norvegicus [12] = assay: In vivo inhibition of P-gp in Sprague-Dawley rat assessed as increase in cyclosporine Cmax at 112 uM/kg, po administered via gastric gavage coadministered with 2.5 mg/kg cyclosporine measured after 720 to 1440 mins by monoclonal fluorescence polarization assay relative to control; assay type: functional; design: scale not given: the % may be the effect or the level left
Rattus norvegicus [13] = assay: In vivo inhibition of P-gp in Sprague-Dawley rat assessed as increase in cyclosporine AUC at 112 uM/kg, po administered via gastric gavage coadministered with 2.5 mg/kg cyclosporine measured after 720 to 1440 mins by monoclonal fluorescence polarization assay relative to control; assay type: functional; design: scale not given: the % may be the effect or the level left
Rattus norvegicus [14] = assay: In vivo inhibition of CYP3A4 in Sprague-Dawley rat assessed as increase in cyclosporine Cmax at 112 uM/kg, po administered via gastric gavage coadministered with 2.5 mg/kg cyclosporine measured after 720 to 1440 mins by monoclonal fluorescence polarization assay relative to control; assay type: ADME, organism-based; design: scale not given: the % may be the effect or the level left
Rattus norvegicus [15] = assay: In vivo inhibition of CYP3A4 in Sprague-Dawley rat assessed as increase in cyclosporine AUC at 112 uM/kg, po administered via gastric gavage coadministered with 2.5 mg/kg cyclosporine measured after 720 to 1440 mins by monoclonal fluorescence polarization assay relative to control; assay type: ADME, organism-based; design: scale not given: the % may be the effect or the level left
Mus musculus [16] = assay: Anti-inflammatory activity in adjuvant-induced C57BL/6 mouse arthritis model assessed as reduction in ankle swelling by measuring splenic Th17 cell population expansion at 100 mg/kg, ip administered once daily for 1 week starting from 14 days post-immunization measured by flow cytometry relative to control; assay type: functional; design: scale not given: the % may be the effect or the level left
Mus musculus [17] = assay: Antiinflammatory activity in dextran sodium sulphate-induced C57BL/6 mouse colitis model assessed as disease activity index at 100 mg/kg, ig administered once daily pretreated for 3 days followed by DSS challenge and subsequent treatment for 7 days measured 24 hrs post last dose (reference value: 5.67 +/- 1.03); assay type: functional
Rattus norvegicus [18] = assay: Anti-hyperplasia activity in carotid arterial balloon-injury-induced Sprague-Dawley rat neointimal hyperplasia model assessed as reduction in thickness of left carotid artery by measuring intima to media thickness ratio at 70 mg/kg administered once daily via gastric gavage from 3 days before balloon injury to 28 days after the injury measured post last dose by haematoxylin/eosin staining based assay relative to control; assay type: functional; design: scale not given: the % may be the effect or the level left
Mus musculus [19] = assay: Anti-inflammatory activity in proteolipid protein 139-151/complete freund's adjuvant-induced SJL/J mouse autoimmune encephalomyelitis model assessed as reduction in clinical score at 5 to 10 mg/kg, ip administered once daily pretreated for 1 day followed by immunization and subsequent treatment for 3 days measured up to 6 days; assay type: functional
[20] = Solubility of the compound in water; assay type: physicochemical; conditions: buffer
Rattus norvegicus [21] = assay: as §1; assay type: ADME, organism-based; conditions: in vivo
Rattus norvegicus [22] = assay: In vivo inhibition of P-gp in Sprague-Dawley rat assessed as increase in cyclosporine Cmax at 112 uM/kg, po administered via gastric gavage coadministered with 2.5 mg/kg cyclosporine measured after 540 mins by monoclonal fluorescence polarization assay relative to control; assay type: functional; design: scale not given: the % may be the effect or the level left
Rattus norvegicus [23] = assay: In vivo inhibition of P-gp in Sprague-Dawley rat assessed as increase in cyclosporine AUC at 112 uM/kg, po administered via gastric gavage coadministered with 2.5 mg/kg cyclosporine measured after 540 mins by monoclonal fluorescence polarization assay relative to control; assay type: functional; design: scale not given: the % may be the effect or the level left
Rattus norvegicus [24] = assay: In vivo inhibition of CYP3A4 in Sprague-Dawley rat assessed as increase in cyclosporine Cmax at 112 uM/kg, po administered via gastric gavage coadministered with 2.5 mg/kg cyclosporine measured after 540 mins by monoclonal fluorescence polarization assay relative to control; assay type: ADME, organism-based; design: scale not given: the % may be the effect or the level left; conditions: 9 h
Rattus norvegicus [25] = assay: In vivo inhibition of CYP3A4 in Sprague-Dawley rat assessed as increase in cyclosporine AUC at 112 uM/kg, po administered via gastric gavage coadministered with 2.5 mg/kg cyclosporine measured after 540 mins by monoclonal fluorescence polarization assay relative to control; assay type: ADME, organism-based; design: scale not given: the % may be the effect or the level left; conditions: 9 h
Rattus norvegicus [26] = assay: In vivo inhibition of CYP1A2 in Sprague-Dawley rat assessed as increase in unbound phenacetin level in plasma at 450 mg/kg, iv coadministered with phenacetin by UV-HPLC method relative to phenacetin alone; assay type: ADME, organism-based

Chain of Cytochrome P450 3A4 (P08684 whole entry): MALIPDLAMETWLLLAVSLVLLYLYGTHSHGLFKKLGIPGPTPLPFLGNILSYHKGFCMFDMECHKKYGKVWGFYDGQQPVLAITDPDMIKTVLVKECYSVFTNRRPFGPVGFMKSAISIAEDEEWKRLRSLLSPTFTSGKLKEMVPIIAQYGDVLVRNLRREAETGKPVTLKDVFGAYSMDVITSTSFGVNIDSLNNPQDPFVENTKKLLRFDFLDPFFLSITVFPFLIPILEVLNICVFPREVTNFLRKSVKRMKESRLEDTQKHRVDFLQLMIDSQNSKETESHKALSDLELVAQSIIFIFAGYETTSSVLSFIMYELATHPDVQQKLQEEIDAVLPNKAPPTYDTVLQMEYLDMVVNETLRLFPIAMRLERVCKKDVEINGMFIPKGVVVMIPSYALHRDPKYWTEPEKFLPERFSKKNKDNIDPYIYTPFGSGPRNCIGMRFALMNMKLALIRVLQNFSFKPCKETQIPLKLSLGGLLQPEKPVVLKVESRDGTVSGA

SMILES: O=c1cc(-c2ccccc2)oc2cc(O)c(O)c(O)c12 [BAICALEIN]
Activity (HMC1): 93 to 95%
Activity (SH-SY5Y [1]): 18.9%
Activity (SH-SY5Y [2]): 21.61%
Activity (Rattus norvegicus [3]): 265.52%
Activity (DU-145 [4]): 144.5 mm3
Activity (DU-145 [5]): 114.2 mm3
Activity (DU-145 [6]): 183 mm3
Activity (NCI-H460): 42%
Papp [7]: 17 ×10⁻⁶ cm/s
Tmax [8]: 0.167 h
bioavailability [9]: 0%
fold change (FC) (Rattus norvegicus [10]): 1.4
fold change (FC) (Rattus norvegicus [11]): 1.6
IC50 (Cytochrome P450 3A4): 9.2 µM
Activity (Rattus norvegicus [12]): 87.5%
Activity (Rattus norvegicus [13]): 150.2%
Activity (Rattus norvegicus [14]): 87.5%
Activity (Rattus norvegicus [15]): 150.2%

solubility [20]: 52 µg/mL (≈ 116 µM)
Papp [7]: 0.037 ×10⁻⁶ cm/s
Tmax [8]: 6.6 h
F (Rattus norvegicus [21]): 62%
Activity (Rattus norvegicus [24]): 408.1%
Activity (Rattus norvegicus [25]): 685.3%
fold change (FC) (Rattus norvegicus [26]): 2
SMILES: O=C(O)[C@H]1O[C@@H](Oc2cc3oc(-c4ccccc4)cc(=O)c3c(O)c2O)[C@H](O)[C@@H](O)[C@@H]1O [BAICALIN]
Activity (Mus musculus [16]): 40%
Activity_index (Mus musculus [17]): 3.03
Activity (Rattus norvegicus [18]): 55%
Activity (Mus musculus [19]): 2.2
Activity (Rattus norvegicus [22]): 408.1%
Activity (Rattus norvegicus [23]): 685.3%

Source: ChEMBL document CHEMBL4038271, “Therapeutic potentials of baicalin and its aglycone, baicalein against inflammatory disorders” (Eur J Med Chem, 2017)
